Measured values as given in patent US20150133456A1, “FLUOROERGOLINE DERIVATIVES AND USES THEREOF” (MAP PHARMACEUTICALS, INC., priority 2012, published 2015).

Key:
[1] = molecular target: T1, α1D receptor (Homo sapiens, UniProt P25100); test: Competitive antagonist activity, adrenergic α1D; type: cell-based; settings: read-out: IC50, α1D antagonism
T1 construct: expressed in transfected cells

[2] = tested on: Purinergic (P2X1/P2X2/P2X3/P2X4/P2X7); test: Purinergic receptor QPatch patch clamp, agonist and antagonist modes; type: cell-based, human; settings: agonist and antagonist modes at 3 and 10 μM
Procedure: Human recombinant purinergic receptor expressing HEK293 cells were used and receptor activity was evaluated at room temperature using QPatch HT® (Sophion Bioscience A/S, Denmark) automatic parallel patch clamp system. 2CF3-DHE was evaluated in both agonist and antagonist modes at 3 and 10 μM. Each concentration was tested in triplicates.

[3] = tested on: Glutamate (mGlu3/mGlu5/mGlu7); test: Glutamate receptor screen (Aequorin mGlu3/mGlu5, cAMP mGlu7); type: cell-based, human
Procedure: For mGlu3 and mGlu5, CHO-K1 cells coexpressing mitochondrial apoaequorin and recombinant human receptor grown to mid-log phase in culture media without antibiotics and supplemented with doxycycline, (final concentration of 600 ng doxycycline/mL), was detached with PBS-EDTA, centrifuged and resuspended in assay buffer (HBSS, 2.1 mM CaCl2, 3 μg/mL GPT (Glutamate-Pyruvate transaminase), 4 mM MEM Sodium Pyruvate, 0.1% BSA protease free) at a concentration of 1×10^6 cells/mL. Cells were incubated at room temperature for at least 4 hours with coelenterazine h. Reference agonist/antagonist was tested to evaluate the performance of the assay and to determine EC50/IC50. […]
Cells expressing the human recombinant receptor of interest were grown in media without antibiotic and detached by gentle flushing with PBS-EDTA (5 mM EDTA), recovered by centrifugation and resuspended in assay buffer (KRH: 5 mM KCl, 1.25 mM MgSO4, 124 mM NaCl, 25 mM HEPES, 13.3 mM glucose, 1.25 mM KH2PO4, 1.45 mM CaCl2, 0.5 g/L BSA). […] Lysis buffer was added and after a 1 hour incubation, cAMP concentrations was determined according to the manufacturer specification with the HTRF kit. […] Lysis buffer was added and after a 1 hour incubation, cAMP concentrations were determined according to the manufacturer specification, with the HTRF kit.

[4] = tested on: Somatostatin (SST1~SST5); test: Somatostatin receptor GTPγS assays; type: biochemical, human
Procedure: (§1) Reagents used were the following: Assay buffer (20 mM HEPES, pH 7.4; 100 mM NaCl; 10 μg/mL saponin; 30 mM MgCl2); Membranes (recombinant human receptor membrane extracts were thawed on ice and diluted in assay buffer to give 1000 μg/mL ([…]) and kept on ice); GDP (diluted in assay buffer to give 30 μM solution (3 μM final concentration); beads (PVT-WGA (Amersham, RPNQ001), diluted in assay buffer at 25 mg/mL (0.25 mg/10 μL)); GTPγ^35S (Perkin Elmer, NEG030X), diluted in assay buffer to give 0.1 nM (final concentration); and ligand (agonist/antagonist diluted in assay buffer).
(§2) Membranes were mixed with GDP (1:1) and incubated for at least 15 minutes on ice. In parallel GTPγ^35S was mixed with the beads (1:1) just before starting the reaction. The following reagents were successively added in the wells of an Optiplate (Perkin Elmer): 50 μL test compound or reference ligand, 20 μL of the membranes:GDP mix (then 15 minute incubation for antagonist test), 10 μL of reference agonist at historical EC80 (for antagonist test) or 10 μL of assay buffer (for agonist test) and 20 μL of the GTPγ^35S:beads mix. […] The plates were then centrifuged for 10 minutes at 2000 rpm and incubated at room temperature for 1 hour and counted for 1 min/well with a Perkin Elmer TopCount reader.

[5] = tested on: Opioid (OP1/OP2/OP3); test: Opioid receptor GTPγS assays; type: biochemical, human
Procedure: as §1, §2

[6] = molecular target: T2, Calcitonin (CGRP) (Homo sapiens, UniProt O60894+Q16602); test: CGRP receptor Aequorin assay; type: cell-based
T2 construct: expressed in transfected cells; host or cells: CHO-AEQ (CHO-K1 with mitochondrial apoaequorin)
T2 sequence (Q16602 23-461): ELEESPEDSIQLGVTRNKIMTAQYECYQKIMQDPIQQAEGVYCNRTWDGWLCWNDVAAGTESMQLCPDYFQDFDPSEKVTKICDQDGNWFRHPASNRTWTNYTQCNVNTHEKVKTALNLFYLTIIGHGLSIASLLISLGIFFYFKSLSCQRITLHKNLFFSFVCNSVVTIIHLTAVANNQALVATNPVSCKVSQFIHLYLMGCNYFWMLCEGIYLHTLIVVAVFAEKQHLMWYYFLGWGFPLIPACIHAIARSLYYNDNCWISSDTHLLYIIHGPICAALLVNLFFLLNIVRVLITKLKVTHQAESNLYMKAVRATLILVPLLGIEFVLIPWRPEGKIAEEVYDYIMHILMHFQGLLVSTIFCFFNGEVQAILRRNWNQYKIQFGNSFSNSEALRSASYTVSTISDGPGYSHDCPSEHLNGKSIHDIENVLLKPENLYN
T2 sequence (O60894 27-148 partner): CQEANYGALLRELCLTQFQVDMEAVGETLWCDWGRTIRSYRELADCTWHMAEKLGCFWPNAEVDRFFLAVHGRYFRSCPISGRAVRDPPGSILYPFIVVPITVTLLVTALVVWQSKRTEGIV
Procedure: (§3) CHO-K1 cells coexpressing mitochondrial apoaequorin and the recombinant human receptor of interest were grown to mid-log phase in culture media without antibiotics and then detached with PBS-EDTA, centrifuged and resuspended in assay buffer (DMEM/HAM's F12 with HEPES, without phenol red+0.1% BSA, protease free) at a concentration of 1×10^6 cell/mL. Cells were incubated at room temperature for at least 4 hours with coelenterazine h. Reference agonist/antagonist was tested to evaluate the performance of the assay and to determine EC50/IC50.
(§4) 50 μL of the cell suspension was mixed with 50 μL of test or reference agonist in a 96-well plate. […] For antagonist testing, 100 μL of the reference agonist at its EC80 was injected on the mix of cells and test compound, following an incubation of 15 minutes after the first injection. The resulting emission of light was r recorded using Hamamatsu Functional Drug Screening System 6000 (FDSS 6000) luminometer. To standardize the emission of recorded light (and determine of the “100% signal”) across plates and across different experiments, some wells contained 100 μM digitonin or a saturating concentration of ATP (20 μM).

[7] = molecular target: T3, OX1 (Homo sapiens, UniProt O43613); test: Orexin receptor Aequorin assay; type: cell-based; settings: antagonism
T3 construct: expressed in transfected cells; host or cells: CHO-AEQ (CHO-K1 with mitochondrial apoaequorin)
T3 sequence (O43613 whole entry): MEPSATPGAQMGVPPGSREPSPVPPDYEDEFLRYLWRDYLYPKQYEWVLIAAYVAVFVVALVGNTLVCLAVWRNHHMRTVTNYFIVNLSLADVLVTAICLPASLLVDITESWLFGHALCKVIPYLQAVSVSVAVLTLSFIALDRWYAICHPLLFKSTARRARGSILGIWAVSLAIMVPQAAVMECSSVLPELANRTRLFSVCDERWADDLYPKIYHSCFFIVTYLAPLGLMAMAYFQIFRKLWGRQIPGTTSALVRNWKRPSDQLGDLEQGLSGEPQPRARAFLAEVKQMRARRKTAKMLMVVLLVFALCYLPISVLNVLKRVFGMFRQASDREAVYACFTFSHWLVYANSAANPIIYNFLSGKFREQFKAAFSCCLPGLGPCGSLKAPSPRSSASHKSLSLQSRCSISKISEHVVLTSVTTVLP
Procedure: as §3, §4

[8] = molecular target: T4, NK1 (Homo sapiens, UniProt P25103); test: Neurokinin receptor Aequorin assay; type: cell-based; settings: antagonism
T4 construct: expressed in transfected cells; host or cells: CHO-AEQ (CHO-K1 with mitochondrial apoaequorin)
T4 sequence (P25103 whole entry): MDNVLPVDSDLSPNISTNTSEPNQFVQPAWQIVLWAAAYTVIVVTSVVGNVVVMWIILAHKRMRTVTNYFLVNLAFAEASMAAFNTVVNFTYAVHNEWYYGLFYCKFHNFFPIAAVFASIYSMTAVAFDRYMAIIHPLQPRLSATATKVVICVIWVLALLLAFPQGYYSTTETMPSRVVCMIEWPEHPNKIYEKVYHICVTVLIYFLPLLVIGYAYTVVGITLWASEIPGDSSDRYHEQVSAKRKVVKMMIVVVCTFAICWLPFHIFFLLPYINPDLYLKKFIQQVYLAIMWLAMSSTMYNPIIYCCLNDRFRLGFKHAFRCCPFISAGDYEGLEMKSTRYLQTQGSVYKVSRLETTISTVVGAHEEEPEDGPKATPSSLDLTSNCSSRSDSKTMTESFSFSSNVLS
Procedure: as §3, §4

[9] = molecular target: human 5-HT1B receptor (Homo sapiens, UniProt P28222); test: GTPγS agonist assay, 5-HT1B
human 5-HT1B receptor, sequence (P28222 whole entry): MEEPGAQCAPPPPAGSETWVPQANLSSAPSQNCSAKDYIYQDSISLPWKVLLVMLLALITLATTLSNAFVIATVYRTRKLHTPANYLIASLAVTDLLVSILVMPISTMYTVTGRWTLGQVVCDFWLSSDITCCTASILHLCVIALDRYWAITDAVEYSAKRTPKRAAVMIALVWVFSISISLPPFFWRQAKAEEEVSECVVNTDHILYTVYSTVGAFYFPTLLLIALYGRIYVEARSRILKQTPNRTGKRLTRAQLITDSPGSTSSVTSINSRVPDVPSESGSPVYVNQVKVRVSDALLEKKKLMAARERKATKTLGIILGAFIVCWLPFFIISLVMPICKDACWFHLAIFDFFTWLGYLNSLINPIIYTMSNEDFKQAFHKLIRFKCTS

T1 sequence (P25100 whole entry): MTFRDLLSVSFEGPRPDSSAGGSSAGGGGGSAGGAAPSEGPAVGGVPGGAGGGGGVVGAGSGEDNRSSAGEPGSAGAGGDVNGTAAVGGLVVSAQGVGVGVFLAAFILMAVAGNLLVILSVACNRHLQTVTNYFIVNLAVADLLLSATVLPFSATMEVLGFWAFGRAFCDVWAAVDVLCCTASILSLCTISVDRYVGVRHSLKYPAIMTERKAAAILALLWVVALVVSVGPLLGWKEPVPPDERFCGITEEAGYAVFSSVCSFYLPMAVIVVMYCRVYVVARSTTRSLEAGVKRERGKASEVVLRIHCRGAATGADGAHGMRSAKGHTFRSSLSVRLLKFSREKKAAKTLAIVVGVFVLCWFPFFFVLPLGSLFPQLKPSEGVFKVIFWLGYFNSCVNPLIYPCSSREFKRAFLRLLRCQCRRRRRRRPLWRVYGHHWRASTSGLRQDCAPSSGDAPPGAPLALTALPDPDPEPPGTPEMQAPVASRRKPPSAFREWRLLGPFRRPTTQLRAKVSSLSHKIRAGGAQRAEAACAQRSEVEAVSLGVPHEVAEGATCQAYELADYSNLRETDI

With CN1C[C@H](C(=O)N[C@]2(C)O[C@@]3(O)[C@@H]4CCCN4C(=O)[C@H](Cc4ccccc4)N3C2=O)CC2c3cccc4[nH]c(C(F)(F)F)c(c34)CC21 (stereo partly drawn) [2-CF3-dihydroergotamine] the IC50 [1] was 40.2 nM, the “Activity (Agonism: EC50; Antagonism: IC50)” value (“Activity” below) [2] was “Inactive” and the “Activity” value [3] was “Inactive”. The “Activity” value [4] was “Inactive”, the “Activity” value [5] was “Inactive” and the “Activity” value [6] was “Inactive”. The IC50 [7] was greater than 10000 nM, the IC50 [8] was greater than 1000 nM and the EC50 [9] was 406 nM.
